Experimental data taken from US9504858B2 (Colgate-Palmolive Company, priority 2012, dated 2016).

Legend:
[1] = target: Bovine Serum Albumin (BSA) (Bos taurus, UniProt P02769); experiment: Flocculation of ZLC in the presence of protein (BSA); assay type: physicochemical; details: ZLC 15 mg/ml, 5 hours, 37° C.
Experimental: Turbidity and pH of solutions are measured 5 hours after the mixtures were placed in a 37° C. oven, and the results are shown in Table 3: […]

[2] = Hydrolysis reaction: pH and turbidity of diluted ZLC solutions before and after aging; assay type: physicochemical; details: for pH after aging / turbidity after aging (NTU): 37° C. oven over 5 hours
Experimental: A 185 mg/ml ZLC solution is prepared and diluted several-fold and aged in a 37° C. oven over 5 hours for turbidity studies. […] Turbidity of the solutions is measured using a nephelometer, results being given in nephelometric turbidity units (NTU).

bacterial culture = experiment: Zone of inhibition test; assay type: cell-based; details: 20 μl on filter paper discs, TSA plates, 20 hours at 37° C.
Experimental: A zone of inhibition test is conducted on several materials: zinc oxide, lysine hydrochloride, and ZLC. The method involves making a lawn of freshly prepared bacterial culture on TSA (trypticase soy agar) plates. Sterile filter paper discs are seeded with 20 μl of test sample (supernatant or mixture). Sample-coated filter paper discs are air dried and applied onto the bacterial lawn on TSA plates. Plates are incubated for 20 hours at 37° C.

[3] = sample 3: 1% BSA, pH adjusted to 5.13

Bovine Serum Albumin (BSA), sequence (P02769 25-607): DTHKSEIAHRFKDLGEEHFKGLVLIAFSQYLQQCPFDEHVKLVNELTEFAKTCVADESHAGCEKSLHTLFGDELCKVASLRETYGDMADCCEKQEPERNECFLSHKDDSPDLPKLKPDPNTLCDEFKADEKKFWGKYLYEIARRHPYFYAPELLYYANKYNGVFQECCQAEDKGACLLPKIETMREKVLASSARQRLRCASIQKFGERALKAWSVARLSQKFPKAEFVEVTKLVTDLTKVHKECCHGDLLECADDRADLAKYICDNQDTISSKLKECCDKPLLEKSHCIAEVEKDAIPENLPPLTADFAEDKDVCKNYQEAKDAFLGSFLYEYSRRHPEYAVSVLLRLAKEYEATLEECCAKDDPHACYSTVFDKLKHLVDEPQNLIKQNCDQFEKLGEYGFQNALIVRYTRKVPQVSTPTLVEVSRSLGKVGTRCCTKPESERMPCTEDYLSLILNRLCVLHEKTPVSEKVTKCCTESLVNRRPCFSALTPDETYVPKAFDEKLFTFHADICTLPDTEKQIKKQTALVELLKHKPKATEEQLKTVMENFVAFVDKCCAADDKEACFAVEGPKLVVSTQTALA

## [Zn(C6H14N2O2)2Cl]^+Cl^− [ZLC]
[1]; sample 1: DI water, 0% BSA
  Turbidity(NTU): 357 NTU
  pH: 7.98
[1]; sample 2: 1% BSA, pH 7.17
  Turbidity(NTU): >1000 NTU
  pH: 8.16
[1]; [3]
  Turbidity(NTU): >1000 NTU
  pH: 7.97
[2]; 5.78 mg/ml
  initial pH: 8.0
  initial turbidity (NTU): 40.1 NTU
  pH after aging: 8.0
  turbidity after aging (NTU): >1000 NTU
[2]; 11.56 mg/ml
  initial pH: 7.8
  initial turbidity (NTU): 14.8 NTU
  pH after aging: 7.8
  turbidity after aging (NTU): >1000 NTU
[2]; 23.125 mg/ml
  initial pH: 7.7
  initial turbidity (NTU): 0.70 NTU
  pH after aging: 7.7
  turbidity after aging (NTU): 247.4 NTU
[2]; 46.25 mg/ml
  initial pH: 7.4
  initial turbidity (NTU): 1.48 NTU
  pH after aging: 7.4
  turbidity after aging (NTU): 2.81 NTU
[2]; 92.5 mg/ml
  initial pH: 7.0
  initial turbidity (NTU): 2.78 NTU
  pH after aging: 7.0
  turbidity after aging (NTU): 2.60 NTU
[2]; 185 mg/ml
  initial pH: 6.8
  initial turbidity (NTU): 4.75 NTU
  pH after aging: 6.8
  turbidity after aging (NTU): 4.08 NTU
[2]; 8×, 16× and 32× diluted solutions, precipitates identified by PXRD
  behaviour of the complex upon dilution: disassociates upon dilution, with consequent precipitation of zinc oxide
Bacterial culture
  antibacterial activity (zone of inhibition): better antibacterial activity than zinc oxide alone or lysine hydrochloride alone
